Earlier results, collected in article PMC5389743 (Investigative Ophthalmology & Visual Science, 2017).

Tests used:
[1] = tested on: α-chymotrypsin–induced rabbit glaucoma model; settings: 0.4% Δ^8-THC submicron emulsion, ocular hypertensive rabbits
normotensive rabbits = settings: 0.4% Δ^8-THC submicron emulsion, after 2 hours

## CCCCCc1cc(O)c2c(c1)OC(C)(C)[C@@H]1CC=C(C)C[C@@H]21 [Δ^8-THC]
[1]
  Drop of IOP: 6.5 mm of Hg
Normotensive rabbits
  Difference between the IOP with and without treatment: 2 mm of Hg
